Source: ChEMBL document CHEMBL5550210, “Discovery of Novel α,β-Unsaturated Amide Derivatives as Candidate Antifungals to Overcome Fungal Resistance” (J Med Chem, 2024)
≈ marks a conversion by molar mass, not a printed value. Calls of active or inactive are those of the source. The calls are words filed in the database; no cut-off is given here.

Key:
[1] = test system: Candida albicans; assay: Antifungal activity against Candida albicans CPCC400616 assessed as inhibition of fungal growth by CLSI protocol based microdilution method; assay type: functional
[2] = test system: Candida albicans; assay: Antifungal activity against Candida albicans SC5314 assessed as inhibition of fungal growth by CLSI protocol based microdilution method; assay type: functional
[3] = test system: Candida parapsilosis; assay: Antifungal activity against Candida parapsilosis ATCC 22019 assessed as inhibition of fungal growth by CLSI protocol based microdilution method; assay type: functional; conditions: Lodderomyces parapsilosis
[4] = test system: Nakaseomyces glabratus; assay: Antifungal activity against Candida glabrata assessed as inhibition of fungal growth by CLSI protocol based microdilution method; assay type: functional
[5] = test system: Pichia kudriavzevii; assay: Antifungal activity against Candida krusei AS 2.1045 assessed as inhibition of fungal growth by CLSI protocol based microdilution method; assay type: functional
[6] = test system: Candida tropicalis; assay: Antifungal activity against Candida tropicalis CGMCC 2.3739 assessed as inhibition of fungal growth by CLSI protocol based microdilution method; assay type: functional
[7] = test system: Cryptococcus neoformans; assay: Antifungal activity against Cryptococcus neoformans CGMCC2.3161 assessed as inhibition of fungal growth by CLSI protocol based microdilution method; assay type: functional
[8] = test system: Aspergillus fumigatus; assay: Antifungal activity against Aspergillus fumigatus CGMCC 3.7795 assessed as inhibition of fungal growth by CLSI protocol based microdilution method; assay type: functional
[9] = test system: Candida albicans; assay: Antifungal activity against fluconazole-resistant Candida albicans CaR assessed as inhibition of fungal growth by CLSI based microdilution method; assay type: functional
[10] = test system: Candida albicans; assay: Antifungal activity against fluconazole-resistant Candida albicans 17 assessed as inhibition of fungal growth by CLSI based microdilution method; assay type: functional
[11] = test system: Candida albicans; assay: Antifungal activity against fluconazole-resistant Candida albicans 632 assessed as inhibition of fungal growth by CLSI based microdilution method; assay type: functional
[12] = test system: Candida albicans; assay: Antifungal activity against fluconazole-resistant Candida albicans 904 assessed as inhibition of fungal growth by CLSI based microdilution method; assay type: functional
[13] = test system: Candida albicans; assay: Antifungal activity against fluconazole-resistant Candida albicans 901 assessed as inhibition of fungal growth by CLSI based microdilution method; assay type: functional
[14] = Half life in mouse plasma measured at 180 mins; assay type: ADME, cell-free
[15] = Metabolic stability in mouse liver microsomes assessed as half life; assay type: ADME, Microsome
[16] = Stability in mouse plasma assessed as parent compound remaining measured at 180 mins; assay type: ADME, cell-free; conditions: read-out: Stability
[17] = test system: Candida albicans; assay: Antifungal activity against Candida albicans assessed as inhibition of fungal growth by CLSI protocol based microdilution method; assay type: functional
[18] = test system: Candida albicans; assay: Fungicidal activity against Candida albicans assessed as inhibition of fungal growth measured after 48 hrs by CLSI protocol based microdilution method; assay type: functional
[19] = molecular target: T1, Lanosterol 14-alpha demethylase (Candida albicans (strain SC5314 / ATCC MYA-2876) (Yeast), UniProt P10613); assay: Inhibition of CYP51 in Candida albicans SC5314 assessed as reduction in ergosterol content at 0.031 ug/ml incubated for 24 hrs by GC-MS analysis relative to control; conditions: at 0.031 µg/mL
[20] = molecular target: T1, Lanosterol 14-alpha demethylase; assay: Inhibition of CYP51 in Candida albicans SC5314 assessed as increase in obtusifoliol level at 0.031 ug/ml incubated for 24 hrs by GC-MS analysis relative to control; conditions: at 0.031 µg/mL
[21] = molecular target: T1, Lanosterol 14-alpha demethylase; assay: Inhibition of CYP51 in Candida albicans SC5314 assessed as increase in lanosterol level at 0.031 ug/ml incubated for 24 hrs by GC-MS analysis relative to control; conditions: at 0.031 µg/mL
[22] = molecular target: T1, Lanosterol 14-alpha demethylase; assay: Inhibition of CYP51 in Candida albicans SC5314 assessed as increase in eburicol level at 0.031 ug/ml incubated for 24 hrs by GC-MS analysis relative to control; conditions: at 0.031 µg/mL
[23] = test system: Candida albicans; assay: Antifungal activity against Candida albicans SC5314 assessed as fungal cell membrane injury at 16 ug/ml incubated for 24 hrs by transmission electron microscopic analysis; assay type: functional, organism-based; conditions: dose 16.0 µg/ml
[24] = test system: Candida albicans; assay: Antifungal activity against Candida albicans SC5314 assessed as leakage of endogenous substances at 16 ug/ml incubated for 24 hrs by transmission electron microscopic analysis; assay type: functional, organism-based; conditions: dose 16.0 µg/ml

T1 sequence (P10613 whole entry): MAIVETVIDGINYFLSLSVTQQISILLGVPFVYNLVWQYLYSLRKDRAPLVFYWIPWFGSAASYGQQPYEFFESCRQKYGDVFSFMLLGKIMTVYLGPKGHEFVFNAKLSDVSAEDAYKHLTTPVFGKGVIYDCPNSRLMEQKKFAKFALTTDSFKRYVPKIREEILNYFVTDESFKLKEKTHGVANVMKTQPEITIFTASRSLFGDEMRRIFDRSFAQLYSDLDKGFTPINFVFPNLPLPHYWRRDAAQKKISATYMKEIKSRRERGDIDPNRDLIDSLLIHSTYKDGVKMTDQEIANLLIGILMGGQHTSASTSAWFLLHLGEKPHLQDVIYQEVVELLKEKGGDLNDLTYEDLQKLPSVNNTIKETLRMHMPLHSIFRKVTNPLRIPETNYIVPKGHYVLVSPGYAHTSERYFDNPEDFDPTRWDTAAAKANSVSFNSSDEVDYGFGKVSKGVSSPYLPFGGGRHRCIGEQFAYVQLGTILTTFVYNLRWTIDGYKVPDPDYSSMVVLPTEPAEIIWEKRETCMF

SMILES | MIC [1] | MIC [2] | MIC [3] | MIC [4] | MIC [5] | MIC [6] | MIC [7] | MIC [8] | MIC [9] | MIC [10] | MIC [11] | MIC [12] | MIC [13] | half-life [14] | further results
CC(C)NC(=O)/C=C/c1ccc(COC(Cn2ccnc2)c2ccc(Cl)cc2Cl)cc1 (stereo not drawn) | 0.125 µg/mL (≈ 0.273 µM) | 0.5 µg/mL (≈ 1.09 µM) | 2 µg/mL (≈ 4.36 µM) | 4 µg/mL (≈ 8.73 µM) | 4 µg/mL (≈ 8.73 µM) | 4 µg/mL (≈ 8.73 µM) | 8 µg/mL (≈ 17.5 µM) | 2 µg/mL (≈ 4.36 µM) | 16 µg/mL (≈ 34.9 µM) | 16 µg/mL (≈ 34.9 µM) | 1 µg/mL (≈ 2.18 µM) | 8 µg/mL (≈ 17.5 µM) | 4 µg/mL (≈ 8.73 µM) |  | 
NC(=O)/C=C/c1ccc(COC(Cn2ccnc2)c2ccc(Cl)cc2Cl)cc1 (stereo not drawn) | 2 µg/mL (≈ 4.8 µM) | 1 µg/mL (≈ 2.4 µM) | 4 µg/mL (≈ 9.61 µM) | 64 µg/mL (≈ 154 µM) | 64 µg/mL (≈ 154 µM) | 8 µg/mL (≈ 19.2 µM) | 16 µg/mL (≈ 38.4 µM) | 64 µg/mL (≈ 154 µM) | 128 µg/mL (≈ 307 µM) | 128 µg/mL (≈ 307 µM) | 16 µg/mL (≈ 38.4 µM) | 32 µg/mL (≈ 76.9 µM) | 32 µg/mL (≈ 76.9 µM) |  | 
O=C(/C=C/c1ccc(COC(Cn2ccnc2)c2ccc(Cl)cc2Cl)cc1)Nc1cccc(Br)c1 (stereo not drawn) | 0.25 µg/mL (≈ 0.438 µM) | 0.125 µg/mL (≈ 0.219 µM) | 0.125 µg/mL (≈ 0.219 µM) | 64 µg/mL (≈ 112 µM) | 64 µg/mL (≈ 112 µM) | 64 µg/mL (≈ 112 µM) | 8 µg/mL (≈ 14 µM) | 4 µg/mL (≈ 7 µM) | 128 µg/mL (≈ 224 µM) | 128 µg/mL (≈ 224 µM) | 4 µg/mL (≈ 7 µM) | 2 µg/mL (≈ 3.5 µM) | 4 µg/mL (≈ 7 µM) |  | 
O=C(/C=C/c1ccc(COC(Cn2ccnc2)c2ccc(Cl)cc2Cl)cc1)Nc1cccc(Cl)c1 (stereo not drawn) | 0.125 µg/mL (≈ 0.237 µM) | 0.06 µg/mL (≈ 0.114 µM) | 0.125 µg/mL (≈ 0.237 µM) | 64 µg/mL (≈ 121 µM) | 64 µg/mL (≈ 121 µM) | 32 µg/mL (≈ 60.7 µM) | 16 µg/mL (≈ 30.4 µM) | 16 µg/mL (≈ 30.4 µM) | 128 µg/mL (≈ 243 µM) | 128 µg/mL (≈ 243 µM) | 2 µg/mL (≈ 3.8 µM) | 2 µg/mL (≈ 3.8 µM) | 4 µg/mL (≈ 7.59 µM) |  | 
Clc1ccc(COC(Cn2ccnc2)c2ccc(Cl)cc2Cl)c(Cl)c1 (stereo not drawn) [MICONAZOLE] | 0.25 µg/mL (≈ 0.601 µM) | 0.03 µg/mL (≈ 0.0721 µM) | 0.25 µg/mL (≈ 0.601 µM) | 0.5 µg/mL (≈ 1.2 µM) | 0.5 µg/mL (≈ 1.2 µM) | 1 µg/mL (≈ 2.4 µM) | 0.25 µg/mL (≈ 0.601 µM) | 2 µg/mL (≈ 4.81 µM) |  |  |  |  |  | > 6 h | 
OC(Cn1cncn1)(Cn1cncn1)c1ccc(F)cc1F [FLUCONAZOLE] | 4 µg/mL (≈ 13.1 µM) | 0.5 µg/mL (≈ 1.63 µM) | 4 µg/mL (≈ 13.1 µM) | 32 µg/mL (≈ 104 µM) | 32 µg/mL (≈ 104 µM) | 2 µg/mL (≈ 6.53 µM) | 4 µg/mL (≈ 13.1 µM) | > 128 µg/mL | > 128 µg/mL | > 128 µg/mL | > 128 µg/mL | > 128 µg/mL | > 128 µg/mL | > 6 h | half-life [15]: > 2 h; remaining at 3 h [16]: 116%; MIC [17]: > 128 µg/mL; MFC [18]: > 128 µg/mL; inhibition (INH) [19]: 48.4%; inhibition (INH) [20]: Active; inhibition (INH) [21]: Active; inhibition (INH) [22]: Active; Activity [23]: Active; Activity [24]: Active
CCCNC(=O)/C=C/c1ccc(COC(Cn2ccnc2)c2ccc(Cl)cc2Cl)cc1 (stereo not drawn) | 0.06 µg/mL (≈ 0.131 µM) | 0.03 µg/mL (≈ 0.0654 µM) | 0.125 µg/mL (≈ 0.273 µM) | 8 µg/mL (≈ 17.5 µM) | 4 µg/mL (≈ 8.73 µM) | 8 µg/mL (≈ 17.5 µM) | 4 µg/mL (≈ 8.73 µM) | 4 µg/mL (≈ 8.73 µM) | 64 µg/mL (≈ 140 µM) | 32 µg/mL (≈ 69.8 µM) | 2 µg/mL (≈ 4.36 µM) | 16 µg/mL (≈ 34.9 µM) | 16 µg/mL (≈ 34.9 µM) |  | 
O=C(/C=C/c1ccc(COC(Cn2ccnc2)c2ccc(Cl)cc2Cl)cc1)Nc1ccc(C(F)(F)F)cc1 (stereo not drawn) | 0.03 µg/mL (≈ 0.0535 µM) | 0.03 µg/mL (≈ 0.0535 µM) | 0.5 µg/mL (≈ 0.892 µM) | 32 µg/mL (≈ 57.1 µM) | 64 µg/mL (≈ 114 µM) | 64 µg/mL (≈ 114 µM) | 2 µg/mL (≈ 3.57 µM) | 32 µg/mL (≈ 57.1 µM) | 64 µg/mL (≈ 114 µM) | 128 µg/mL (≈ 228 µM) | 2 µg/mL (≈ 3.57 µM) | 8 µg/mL (≈ 14.3 µM) | 16 µg/mL (≈ 28.6 µM) |  | 
O=c1ccc2ccc(COC(Cn3ccnc3)c3ccc(Cl)cc3Cl)cc2o1 (stereo not drawn) | 0.06 µg/mL (≈ 0.144 µM) | 0.03 µg/mL (≈ 0.0722 µM) | 0.5 µg/mL (≈ 1.2 µM) | 0.5 µg/mL (≈ 1.2 µM) | 2 µg/mL (≈ 4.82 µM) | 0.25 µg/mL (≈ 0.602 µM) | 2 µg/mL (≈ 4.82 µM) | 1 µg/mL (≈ 2.41 µM) | 1 µg/mL (≈ 2.41 µM) | 4 µg/mL (≈ 9.63 µM) | 4 µg/mL (≈ 9.63 µM) | 1 µg/mL (≈ 2.41 µM) | 4 µg/mL (≈ 9.63 µM) | > 6 h | 
O=C(/C=C/c1ccc(COC(Cn2ccnc2)c2ccc(Cl)cc2Cl)cc1)Nc1ccc(F)cc1 (stereo not drawn) | 0.06 µg/mL (≈ 0.118 µM) | 0.03 µg/mL (≈ 0.0588 µM) | 32 µg/mL (≈ 62.7 µM) | 32 µg/mL (≈ 62.7 µM) | 64 µg/mL (≈ 125 µM) | 2 µg/mL (≈ 3.92 µM) | 2 µg/mL (≈ 3.92 µM) | 1 µg/mL (≈ 1.96 µM) | 4 µg/mL (≈ 7.84 µM) | 128 µg/mL (≈ 251 µM) | 0.25 µg/mL (≈ 0.49 µM) | 0.5 µg/mL (≈ 0.98 µM) | 1 µg/mL (≈ 1.96 µM) |  | 
